The source made the active and inactive calls.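 Rule for the calls: active = inhibition of WEE1 degradation of at least 19%, seen as raised luminescence; inactive = the rest.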

Among the data in PubChem BioAssay AID434972 (The Scripps Research Institute Molecular Screening Center, 2010) are inhibition of WEE1 degradation values, retold here.

The target of this assay is Wee1-like protein kinase (Homo sapiens) (UniProt P30291). The experiment in a line: WEE1-luciferase stabilization in HeLa cells – cell-based, WEE1K328M-luciferase, luminescence, powder samples, SAR follow-up (AID 434972). To be noted: HeLa WEE1K328M-luciferase stability, at 0.25 µM, hits give high values.
Chain of Wee1-like protein kinase (Homo sapiens) (P30291 whole entry K328M): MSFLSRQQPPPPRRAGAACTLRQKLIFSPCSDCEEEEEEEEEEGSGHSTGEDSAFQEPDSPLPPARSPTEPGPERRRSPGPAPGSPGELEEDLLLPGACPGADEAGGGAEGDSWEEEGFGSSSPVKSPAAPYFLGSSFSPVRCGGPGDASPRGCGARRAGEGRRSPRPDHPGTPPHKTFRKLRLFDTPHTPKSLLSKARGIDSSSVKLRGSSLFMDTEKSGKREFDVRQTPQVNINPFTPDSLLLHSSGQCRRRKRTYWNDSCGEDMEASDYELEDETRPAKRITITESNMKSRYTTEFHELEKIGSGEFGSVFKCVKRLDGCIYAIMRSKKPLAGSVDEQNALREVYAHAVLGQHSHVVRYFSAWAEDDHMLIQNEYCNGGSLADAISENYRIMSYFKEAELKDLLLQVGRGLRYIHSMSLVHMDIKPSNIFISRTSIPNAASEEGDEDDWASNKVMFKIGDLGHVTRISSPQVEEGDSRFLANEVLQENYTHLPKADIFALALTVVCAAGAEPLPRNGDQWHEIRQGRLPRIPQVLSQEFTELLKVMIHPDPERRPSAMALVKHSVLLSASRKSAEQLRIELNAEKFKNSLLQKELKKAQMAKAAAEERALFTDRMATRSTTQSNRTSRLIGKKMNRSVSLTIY
For `CC(C)n1cnc2c(NCc3nc4ccccc4[nH]3)nc(Nc3ccncn3)nc21`, the inhibition of WEE1 degradation was 4% (inactive).

As to `CCOC(=O)c1cccc2[nH]c(CNc3nc(N4CCOCC4)nc4c3ncn4-c3ccsc3)nc12`, the inhibition of WEE1 degradation was 97.3%.

As to `Nc1cccc2[nH]c(CNc3nc(N4CCOCC4)nc4c3ncn4-c3ccsc3)nc12`, the inhibition of WEE1 degradation was 15.6% (inactive).

For the molecule `CC(C)n1cnc2c(NCc3nc4ccccc4[nH]3)nc(Nc3cnccn3)nc21`, the inhibition of WEE1 degradation was 5.3% (inactive).

For the molecule `OCCN1CCN(c2nc(NCc3nc4ccccc4[nH]3)c3ncn(-c4ccsc4)c3n2)CC1`, the inhibition of WEE1 degradation is 10% (inactive).

`c1ccc2[nH]c(CNc3nc(N4CCCC4)nc4c3ncn4-c3ccsc3)nc2c1`: the inhibition of WEE1 degradation is 9.9% (inactive).

On to `Fc1ccc2nc(CNc3nc(N4CCOCC4)nc4c3ncn4-c3ccsc3)[nH]c2c1`, for which the inhibition of WEE1 degradation is 81.4%.

As to `c1cnc2ccc3[nH]c(CNc4nc(N5CCOCC5)nc5c4ncn5-c4ccsc4)nc3c2c1`, the inhibition of WEE1 degradation was 22%.

For the molecule `COc1ccc2nc(CNc3nc(N4CCOCC4)nc4c3ncn4-c3ccsc3)[nH]c2c1`, the inhibition of WEE1 degradation was 79.5%.

Turning to `c1ccc2[nH]c(CNc3nc(N4CCNCC4)nc4c3ncn4-c3ccsc3)nc2c1`, the inhibition of WEE1 degradation was 14.5% (inactive).

With `C=CCN(CC=C)c1nc(NCc2nc3ccccc3[nH]2)c2ncn(-c3ccsc3)c2n1`, the inhibition of WEE1 degradation was 8.2% (inactive).

For `c1ccc2[nH]c(CNc3nc(N4CCSCC4)nc4c3ncn4-c3ccsc3)nc2c1`, the inhibition of WEE1 degradation is 11.4% (inactive).

`c1ccc2[nH]c(CNc3nc(N4CCCCC4)nc4c3ncn4-c3ccsc3)nc2c1`: the inhibition of WEE1 degradation was 10.5% (inactive).

With `Cc1ccnc(NC(=O)CCCOc2cc(=O)n(C)c3ccccc23)c1`, the inhibition of WEE1 degradation was 6.4% (inactive).

`C[C@@H](Nc1nc(NCc2nc3ccccc3[nH]2)c2ncn(-c3ccsc3)c2n1)c1ccccc1`: the inhibition of WEE1 degradation is 9.2% (inactive).

Consider `O=[N+]([O-])c1ccc2nc(CNc3nc(N4CCOCC4)nc4c3ncn4-c3ccsc3)[nH]c2c1`, for which the inhibition of WEE1 degradation was 18.7% (inactive).

For `CCOC(=O)c1cccc2[nH]c(CNc3nc(N4CCOCC4)nc4c3ncn4C(C)C)nc12`, the inhibition of WEE1 degradation is 17% (inactive).

Consider `c1ccc2[nH]c(CNc3nc(N4CCOCC4)nc4c3ncn4-c3ccsc3)nc2c1`, for which the inhibition of WEE1 degradation is 56.8%.

Turning to `CC(C)n1cnc2c(NCc3nc4c([N+](=O)[O-])cccc4[nH]3)nc(N3CCOCC3)nc21`, the inhibition of WEE1 degradation is 111%.

On to `c1ccc(N2CCN(c3nc(NCc4nc5ccccc5[nH]4)c4ncn(-c5ccsc5)c4n3)CC2)nc1`, for which the inhibition of WEE1 degradation was 4% (inactive).

On to `c1ccc2c(c1)CCN2c1nc(NCc2nc3ccccc3[nH]2)c2ncn(-c3ccsc3)c2n1`, for which the inhibition of WEE1 degradation is 7.9% (inactive).

`O=C(NC1CC1)c1ccc(-c2nc(NCc3nc4ccccc4[nH]3)c3ncn(-c4ccsc4)c3n2)cc1`: the inhibition of WEE1 degradation is 3.6% (inactive).

As for `FC(F)(F)c1cc(Br)c2nc(CNc3nc(N4CCOCC4)nc4c3ncn4-c3ccsc3)[nH]c2c1`, the inhibition of WEE1 degradation was 13.4% (inactive).

As to `c1ccc2cc3[nH]c(CNc4nc(N5CCOCC5)nc5c4ncn5-c4ccsc4)nc3cc2c1`, the inhibition of WEE1 degradation was 48.3%.

Consider `CC(C)n1cnc2c(NCc3nc4ccccc4[nH]3)nc(N3CCOCC3)nc21`, for which the inhibition of WEE1 degradation is 4.1% (inactive).

As for `Clc1ccc2nc(CNc3nc(N4CCOCC4)nc4c3ncn4-c3ccsc3)[nH]c2c1`, the inhibition of WEE1 degradation is 101%.

For the molecule `N#Cc1ccc2nc(CNc3nc(N4CCOCC4)nc4c3ncn4-c3ccsc3)[nH]c2c1`, the inhibition of WEE1 degradation is 85.9%.

Consider `c1ccc(-n2cnc3c(NCc4nc5ccccc5[nH]4)nc(N4CCOCC4)nc32)cc1`, for which the inhibition of WEE1 degradation is 4% (inactive).

Turning to `FC(F)(F)c1cccc2[nH]c(CNc3nc(N4CCOCC4)nc4c3ncn4-c3ccsc3)nc12`, the inhibition of WEE1 degradation was 10.8% (inactive).

As to `O=[N+]([O-])c1cccc2[nH]c(CNc3nc(N4CCOCC4)nc4c3ncn4-c3ccsc3)nc12`, the inhibition of WEE1 degradation was 100%.

Regarding `c1ccc2[nH]c(CNc3nc(NCCN4CCOCC4)nc4c3ncn4-c3ccsc3)nc2c1`, the inhibition of WEE1 degradation is 8.1% (inactive).

For the molecule `CC(C)n1cnc2c(NCc3nc4ccccc4[nH]3)nc(Nc3cccnc3)nc21`, the inhibition of WEE1 degradation is 3.4% (inactive).

For `NCCN1CCN(c2nc(NCc3nc4ccccc4[nH]3)c3ncn(-c4ccsc4)c3n2)CC1`, the inhibition of WEE1 degradation was 8.6% (inactive).

Regarding `c1ccc2[nH]c(CNc3nc(Nc4cnccn4)nc4c3ncn4-c3ccsc3)nc2c1`, the inhibition of WEE1 degradation was 2.9% (inactive).

Turning to `FC(F)(F)c1ccc2nc(CNc3nc(N4CCOCC4)nc4c3ncn4-c3ccsc3)[nH]c2c1`, the inhibition of WEE1 degradation was 46.3%.

On to `Nc1ccc2nc(CNc3nc(N4CCOCC4)nc4c3ncn4-c3ccsc3)[nH]c2c1`, for which the inhibition of WEE1 degradation was 8.3% (inactive).

On to `CN1CCN(c2nc(NCc3nc4ccccc4[nH]3)c3ncn(-c4ccsc4)c3n2)CC1`, for which the inhibition of WEE1 degradation is 14.1% (inactive).
